Experimental data published in patent US9458123B2, “Methods, pharmaceutical compositions, therapeutic systems, and compounds for treating B cell malignancies” (University of Rochester, priority 2012, dated 2016).

Key:
[1] = system: IκBα phosphorylation by LPS in MEF cells; assay: IκBα phosphorylation after LPS, western blot; type: cell-based, Mouse; settings: LPS 1.5 μg/ml
Description: SUDHL-6, RAW264.7, and MEF cells were treated with NSC697923 or DMSO (control) for 1 hour before being stimulated with the PMA (100 ng/ml), RANKL (15 ng/ml), and LPS (1.5 μg/ml) for the indicated times. The levels of IκBα phosphorylation in the indicated samples were assessed by western blotting.
HEK293T cells were grown in DMEM supplemented with 10% fetal bovine serum (FBS). Diffuse large B cell lymphoma (DLBCL) cells SUDHL-6, OCI-Ly3, OCI-Ly7, OCLLy10, and HBL-1 were cultured as previously described (Davis et al., “Constitutive Nuclear Factor KappaB Activity is Required for Survival of Activated B Cell-Like Diffuse Large B Cell Lymphoma Cells,” J. Exp. Med. 194:1861-1874 (2001) and Kim et al., “Protein Kinase C-Associated Kinase is Required for NF-kappaB Signaling and Survival in Diffuse Large B-Cell Lymphoma Cells,” Blood 111:1644-1653 (2008), each of which is hereby incorporated by reference in its entirety). RAW264.7 cells were cultured in α-MEM medium supplemented with 10% FBS. Mouse embryo fibroblasts (“MEFs”) were prepared from day 14 embryos as previously described (Kamijo et al., “Tumor Suppression at the Mouse INK4a Locus Mediated by the Alternative Reading Frame Product p19ARF,” Cell 91:649-659 (1997), which is hereby incorporated by reference in its entirety). MEFs with less than four passages were used for the experiments described here. […]

[2] = target: T1, Ubc13-Uev1A (Homo sapiens, UniProt P61088); assay: In vitro ubiquitination assay, Ubc13-Uev1A; type: biochemical
T1 construct: purchased Boston Biochem Inc E2-600 (Ubc13); E2-662 (Uev1A)
Description: The in vitro reaction, which contains purified E1, ubiquitin, Ubc13, and Uev1A, was carried out with or without the indicated concentrations of NSC697923. The reaction products were analyzed by a ubiquitin-specific antibody on western blots. FIG. 4B is the same as FIG. 4A, except that purified GST-TRAF6 was included as the E3 in the complete reaction as indicated. […] The assay was carried out as in FIG. 4B, except that UbcHSc instead of Ubc13-Uev1A was used as the E2 in the ubiquitination reaction.
The purified recombinant proteins used in the in vitro ubiquitination reactions were all purchased from Boston Biochem Inc, except GST-TRAF6, which was expressed and purified as described above. The reactions were carried out at 37° C. for 40 minutes in a buffer containing 50 mM Tris-HCl, pH 7.5, 5 mM MgCl2, 200 μM ATP, 120 μM ubiquitin (U-100H), and 0.1 μM E1 (E-304). For the Ubc13-mediated ubiquitin chain synthesis, the reaction mixture includes 0.2 μM Ubc13 (E2-600) and […] Uev1A (E2-662) with or without GST-TRAF6 as indicated. For UbcHSc-catalyzed ubiquitination, UbcHSc (E2-627), instead of Ubc13 and Uev1A, was used in the reaction. […] The reactions were terminated by the addition of an equal volume of SDSPAGE sample buffer, and the products were analyzed by western blotting with a ubiquitin specific antibody.

[3] = target: T2, Ubc13 in OCI-Ly10 cells (Homo sapiens, UniProt P61088); assay: Ubc13~Ub conjugate formation in DLBCL cells, western blot; type: cell-based; settings: 3 hours
T2 construct: endogenous in cells; host or cells: OCI-Ly10
Description: (§1) OCI-Ly10 cells were treated with the indicated concentrations of NSC697923 for 3 hours. The levels of Ubc13˜Ub conjugate were analyzed by western blotting using a Ubc13-specific antibody as described in FIG. 4B. […] OCI-Ly10 cells were treated with DMSO (0.1%) or the indicated concentrations of NSC697923 for 3.5 hours. The levels of the indicated proteins were analyzed by western blotting with the respective antibodies.

[4] = system: constitutive NF-κB signaling in OCI-Ly10 cells; assay: Constitutive NF-κB signaling in ABC DLBCL cells, western blot; type: cell-based; settings: 3.5 hours
Description: as §1

[5] = system: breast cancer MDA-MB231 cells; assay: Cell viability, trypan blue exclusion assay; type: cell-based; settings: 24 hours
Description: (§2) 1×10^6 cells were plated in 10 cm plates and cultured overnight. The indicated concentrations of NSC697923 were then added into culture medium for 24 hours before the cell viability was analyzed by trypan blue exclusion assay. Shown are the averages from three independent experiments.
(§3) Apoptosis was assayed using the 7AAD/annexin V apoptosis kit (BD Bioscience) as previously described (Kim et al., “Protein Kinase C-Associated Kinase is Required for NF-kappaB Signaling and Survival in Diffuse Large B-Cell Lymphoma Cells,” Blood 111:1644-1653 (2008), which is hereby incorporated by reference in its entirety). Analysis of the cell cycle distribution of the treated cells was carried out with propidium iodide (PI) and BrdU double staining as previously described (DeRan et al., “Assessing G1-to-S-Phase Progression after Genotoxic Stress,” Methods Mol. Biol. 782:221-230 (2011) and Su et al., “DNA Damage Induces Downregulation of Histone Gene Expression Through the G1 Checkpoint Pathway,” EMBO. J. 23:1133-1143 (2004), each of which is hereby incorporated by reference in its entirety).

[6] = system: osteosarcoma U2OS cells; assay: Cell viability, trypan blue exclusion assay; type: cell-based; settings: 24 hours
Description: as §2, §3

T1 sequence (P61088 whole entry): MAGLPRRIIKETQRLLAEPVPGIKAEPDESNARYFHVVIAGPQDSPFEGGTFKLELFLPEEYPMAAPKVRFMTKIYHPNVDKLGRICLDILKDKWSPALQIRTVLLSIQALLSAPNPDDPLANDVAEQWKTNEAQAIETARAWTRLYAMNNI
T1 sequence (Q13404 whole entry partner): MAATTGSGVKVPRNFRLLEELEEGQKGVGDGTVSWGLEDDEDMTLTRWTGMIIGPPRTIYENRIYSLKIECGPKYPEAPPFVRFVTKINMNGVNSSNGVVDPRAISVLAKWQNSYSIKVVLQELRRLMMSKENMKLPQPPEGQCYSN
T2 sequence (P61088 whole entry): as the sequence (P61088 whole entry) above

Structure (SMILES): Cc1ccc(S(=O)(=O)c2ccc([N+](=O)[O-])o2)cc1 [NSC697923, 2-nitro-5-tosylfuran]
- IκBα phosphorylation by LPS [1]: inhibited
- polyubiquitin chain formation catalyzed by Ubc13-Uev1A ([2]; E1, ubiquitin, Ubc13, Uev1A, without E3): inhibited polyubiquitin chain formation catalyzed by Ubc13-Uev1A complex in a dose-dependent manner
- ubiquitin chain formation catalyzed by Ubc13-Uev1A together with TRAF6 ([2]; GST-TRAF6 as E3): similarly inhibited by NSC697923 in a dose-dependent manner
- formation of the Ubc13~Ub conjugate in cells [3]: inhibited formation of the Ubc13˜Ub conjugate
- expression of Mc1-1 [4]: is inhibited
- expression of p100 [4]: is inhibited
- phosphorylation of IKK [4]: inhibited phosphorylation
- phosphorylation of IκBα [4]: inhibited phosphorylation
- toxic effects on proliferation and survival compared to DLBCL cells [5]: much less toxic effects
- toxic effects on proliferation and survival compared to DLBCL cells [6]: much less toxic effects
